Test [1] deals with asexual blood stages of P. falciparum. The experiment in a line: Life cycle stage specific action by microscopy of Giemsa-stained thin smears. The test is classed as cell-based, Plasmodium falciparum. The conditions noted are these: 10 μM, 24 h, listed as (±)-moxiquindole. Here is the method:
The life cycle stage specific action of (±)-moxiquindole was determined by treatment of parasites at different time points followed by microscopic analysis of Giemsa-stained thin blood smears. Stage proportions were calculated for each asexual parasite stage in the drug treated wells relative to the same stage in the negative control wells.
The inhibitory effects of active compounds or reference drugs on parasite development and schizont rupture were determined by quantitative light microscopy as previously described (Lee et al., 2015). Briefly, synchronized cultures (1.5% hematocrit and 3% parasitemia) at different time-points (early rings, mid trophozoites and schizonts) were treated with either test compound or controls at 10 μM final concentration for 24 h under regular culture conditions. Following treatment, Giemsa-stained thin smears were prepared and parasites were counted in 1,000 erythrocytes per treatment. Stage proportions in test wells relative to solvent control wells were calculated and used to assess the in vitro effects of each compound on trophozoites and schizont development as well as merozoite egress and invasion.

Test [2] concerns P. chabaudi-infected mice. The experiment in a line: Peter's four-day suppressive test (chemosuppressive activity). The format is in vivo, Swiss albino mice. The protocol: Following the encouraging in vitro antiplasmodial activities and cytotoxicity profiles reported above, as well as the ADMET properties of the primary and secondary hits identified in this study, studies were carried out to assess the in vivo efficacy of these compounds in laboratory mice. Chemosuppressive potentials were assessed using the Peter's four-day test whereas the ability of each compound to cure an established plasmodial infection was determined using the Rane's test. To assess the in vivo chemosuppressive potential of the compounds, groups of P. chabaudi-infected mice were treated by ip injection for 3 days following infection using fixed doses of 0.03, 0.3, 3, 10, or 30 mg/kg for each compound. The percent suppression of parasite growth in treated groups was calculated relative to the control group and the growth inhibition curves plotted.
Eight-week old male Swiss albino mice weighing approximately 23±3 g were housed in cages and maintained in a well-ventilated room under standard environmental conditions of temperature at 22-24° C., under a 12 h dark-light cycle, with food and water provided ad libitum.
The animals were allowed one week acclimation before commencement of the study. Three (3) mice were infected with stocked blood containing Plasmodium chabaudi parasites and used as donors. In brief, frozen blood containing the sulfadoxine/pyrimethamine resistant P. c. chabaudi (AS(50S/P) parasites was thawed and about 200 μL parasites were injected intra-peritoneally (i.p) into each of the three mice and parasitemia monitored through blood smear until a 20% threshold was reached. These infected animals then served as donors to the experimental animals. Ethical approval for the study was obtained from the University of Douala Institutional Review Board (N^oIEC-UD/1146/09/2017/A).
In vivo efficacies were conducted following a modification of the Peter's four-day suppressive test as previously described (Lee et al., 2014, Tarkang et al., 2014). Briefly, following parasite passage in donor mice, the mice were euthanized using diethyl ether and P. c. chabaudi infected blood was obtained by cardiac puncture and placed into heparinized tubes. The blood was then diluted with phosphate buffered saline (PBS) and immediately used to infect the experimental mice. Mice were randomly divided into seven (7) groups of 3 animals and each mouse was injected with 1×10^7 infected erythrocytes intraperitoneally (Day 0). The mice were kept for 24 hours to establish infection and Giemsa thin blood smears were prepared to quantify parasites (Day 1). Thereafter, groups 1, 2, 3, 4 and 5 were treated with compounds dissolved in 1×PBS, intraperitoneally at dosages of 30, 10, 3, 0.3 and 0.03 mg/kg body weight, respectively, while groups 6 and 7 were treated with vehicle or chloroquine at 10 mg/kg, respectively for three consecutive days (Day 1-Day 3). Twenty-four (24) and ninety-six (96) hours post-infection, thin blood smears were prepared from each animal with blood obtained from the tail vein, fixed in methanol and stained with 10% Giemsa.
Parasitemia was determined by light microscopy using a 100× objective lens and the following equation: […]
Average percentage chemosuppression was calculated as
Where A is mean parasitemia in negative control and B is mean parasitemia in test group

Test [3] concerns vacuolar lipid dynamics in P. falciparum. The experiment in a line: Effect on vacuolar lipid dynamics (Oil Red O staining). The format is cell-based, Plasmodium falciparum. The conditions noted are these: trophozoite stage parasites, 24 h. Here is the method: Because cellular vacuolation may result from perturbation of intracellular lipid content, we investigated the effect of (±)-moxiquindole on vacuolar lipid dynamics using fluorescent Oil red O as lipid stain.
The effect of the compounds on intracellular lipid dynamics was assessed by measurement of intracellular lipid content using Oil Red O. Briefly, early rings or late trophozoite stage parasites (30 hpi) were treated with the compounds or controls for 24 h under regular culture conditions. Following treatment, inhibitors were removed by centrifugation at 2500 rpm for 5 min and pellets were washed in equal volumes of 1×PBS. The parasites were fixed with 4% paraformaldehyde for 30 min at room temperature and pelleted at 2500. Three volumes of Oil Red O (ORO) stock solution (5 mg/mL in 100% isopropanol) were diluted in two volumes of distilled water and filtered prior to use. About 100 μL of the ORO were added to parasite pellets in the tube and incubated for 30 minutes. Parasites were pelleted and washed twice in distilled water. Thereafter, parasites were deposited on pre-cleaned coverslips and air dried. Dried coverslips were mounted in DAPI antifade reagent onto cleaned slides, air dried and viewed under a 100× oil immersion lens and images acquired using a Leica DM1000 fluorescence microscope suite (LAS version 4.5).

In test [4] the test system is Malaria parasites (ring-stage parasitized erythrocytes). The experiment in a line: Drug-combination (drug-drug interaction) studies, SYBR-Green I. The format is cell-based, Plasmodium falciparum. The protocol: In view of the overlapping modes of action between the hybrids and some known antimalarial drugs in terms of targeted cellular processes, we investigated the interaction between these compounds at variable combination ratios. Malaria parasites were continuously cultured and synchronized as earlier described prior to the assay.
Briefly, two-fold drug dilutions were prepared using a variable potency ratio drug combination approach, starting at 5EC50A: 0EC50B to 0EC50A: 5EC50B in serum-free medium, where A and B represent the different partner molecules.
The test was run for 72 h and terminated when the untreated parasites were at the early trophozoite stage of the second cycle. Parasite viability was assessed by the SYBR-Green I fluorescence-based assay as earlier described. Dose-response curves and EC50 values of each combination and drug alone were obtained using GraphPad Prism v.5.0 and Microsoft Excel was used to calculate mean EC50 values and the standard error of the mean.

This note sets out measurements from US20230132973A1, “DIHYDRO-SPIRO[INDOLINE-3:1'-iSOQUINOLIN]-2-ONES AS ANTIMALARIAL AGENTS” (The University of Buea, priority 2020, published 2023).

“Also recorded” adds a separate entry of the source.

Take `COc1cc2c(cc1OC)C1(NCC2)C(=O)Nc2ccc(Cl)cc21` (stereo not shown) [Compound 8b]: the “stage specific action on asexual blood stages (ring, trophozoite, schizont)” value in test [1] (treated at early ring, mid-trophozoite or mid-schizont) is “multi-stage active; also recorded: exhibits inhibitory activities against ring-to-trophozoite development, trophozoite-to-schizont development and schizont rupture”. Moreover, in test [1] (Giemsa-stained thin smears), the “vacuolation in treated parasites” value is “abnormal vacuolation; also recorded: induced vacuolation in parasites”. In test [2] (3.0 mg/kg ip), this compound returned a suppression of parasitemia of 98%. The “suppressive ED50” value in test [2] (ip, 3 days, P. chabaudi-infected mice) worked out at 0.25 mg/kg. Also, the “neutral lipid bodies / vacuolar lipid uptake (Oil red O)” value in test [3] is recorded as “devoid of neutral lipid bodies”. Also, the “combination index (CI)” value in test [4] (in combination with artemisinin) came to 1.440; in test [4] (in combination with chloroquine), 1.478.
